# Measured values as given in patent US12285399B2, “Composition comprising bornyl acetate or pharmaceutically acceptable salt thereof as active ingredient for prevention or treatment of stress-related disorder” (UNIVERSITY-INDUSTRY COOPERATION GROUP OF KYUNG HEE …, priority 2019, dated 2025).
# Key:
# Format in all cases: in vivo, C57BL/6NTac mice
# [1] = tested on: animal model of stress depression induced by chronic restrained stress (CRS); assay: Forced swimming test (FST) in CRS-induced stress depression model; conditions: CRS+BA group, oral daily 1 hour before restraint, 24 hours after TST, last 4 minutes of 6-minute test; dose not stated
# Experimental: In order to confirm the antidepressant efficacy of bornyl acetate on the animal model of stress depression, an animal model of depression induced by chronic restrained stress (CRS) was prepared. Specifically, the animal model, 8-week-old male C57BL/6NTac mice after birth (Narabiotechnology, Korea; weight 22-24 g) had been stabilized for 1 week. A 50 ml conical tube (SPL Life sciences, Pocheon, Korea) was punched to make a hole, thereby making a restraint frame. The mice were put in the frame and restrained for 2 hours every day for 14 days. After restraint, the mice were allowed to freely ingest water and food in the home cage. 24 hours after the tail suspension test, distilled water (23-24° C.) was filled to a height of about 14 cm in a circular water tank (diameter 15×height 25 cm), and the mice were dropped and forced to swim. […] Bornyl acetate (25, 50 and 100 mg/kg) of the present invention was dissolved in 0.1 M PBS, and the mixture was orally administered 1 hour before inducing restrained stress every day. Bornyl acetate was administered in a dose per individual of 100 μl.
# [2] = Body weight change in chronic restrained stress (CRS) depression model; conditions: CRS+BA group, oral, 14 days of restrained stress, 14th day
# Experimental: In order to confirm the antidepressant efficacy of bornyl acetate on the animal model of stress depression, an animal model of depression induced by chronic restrained stress (CRS) was prepared. Specifically, the animal model, 8-week-old male C57BL/6NTac mice after birth (Narabiotechnology, Korea; weight 22-24 g) had been stabilized for 1 week. A 50 ml conical tube (SPL Life sciences, Pocheon, Korea) was punched to make a hole, thereby making a restraint frame. The mice were put in the frame and restrained for 2 hours every day for 14 days. After restraint, the mice were allowed to freely ingest water and food in the home cage. Bornyl acetate (25, 50 and 100 mg/kg) of the present invention was dissolved in 0.1 M PBS, and the mixture was orally administered 1 hour before inducing restrained stress every day. Bornyl acetate was administered in a dose per individual of 100 μl. Specifically, the mice were weighed during or after applying restrained stress for 2 hours per day for 14 days, followed by a tail suspension test and forced swimming test were performed, and serum stress hormone (corticosterone) levels were measured (FIGS. 1A and 1B).
# c-Fos = assay: Immunohistochemical staining for c-Fos in brain of CRS model; conditions: hippocampus and amygdala, CRS+BA group, 100 mg/kg oral
# Experimental: In order to confirm the antidepressant efficacy of bornyl acetate on the animal model of stress depression, an animal model of depression induced by chronic restrained stress (CRS) was prepared. Specifically, the animal model, 8-week-old male C57BL/6NTac mice after birth (Narabiotechnology, Korea; weight 22-24 g) had been stabilized for 1 week. A 50 ml conical tube (SPL Life sciences, Pocheon, Korea) was punched to make a hole, thereby making a restraint frame. The mice were put in the frame and restrained for 2 hours every day for 14 days. After restraint, the mice were allowed to freely ingest water and food in the home cage. Bornyl acetate (100 mg/kg) was administered orally 1 hour before induction of restraint stress every day. 14 days later, the mice were anesthetized, and 4% paraformaldehyde was perfused into the heart. Then, the mice were fixed, and the brain was excised. The excised brain was immersed in 4% paraformaldehyde and fixed at 4° C. for one more day. It was then changed to 30% sucrose, and the brain was stored at 4° C. for 3 days or more to prevent freeze damage. The brain was cut into a thickness of 30 μm using a cryocut microtome to prepare the frozen sections. […]
smiles,measurement,setting,value
"CC(=O)OC1CC2CCC1(C)C2(C)C (stereo not drawn) [BA, bornyl acetate]","time of immobility, forced swimming test",[1],85.2 s
same,body weight change,[2],no significant increase or decrease
same,distribution of cells immunostained by c-Fos,c-Fos,consistent
